Test results: patent US7906522B2, “2-aminoquinazoline derivatives” (Kyowa Hakko Kirin Co., Ltd, priority 2005, dated 2011)

target: T1, Activated human p38α (Homo sapiens, UniProt Q16539); test: p38MAP kinase inhibition test; assay type: biochemical; details: at a concentration of 1 μmol/L; substrate myelin basic protein, ATP 20 μmol/L, [γ-32P]ATP; read-out: enzyme inhibitory activity
T1 construct: purchased Upstate Biotechnology Inc. 14-251
Method: p38MAP Kinase Inhibition Test
Activated human p38α was purchased from Upstate Biotechnology Inc. (Catalog No. 14-251). P38MAP kinase inhibitory activity was measured by the procedure described below with reference to the method by Whitmarsh A. J. and Davis R. J. [Methods in Enzymology (Method. Enzymol.), vol. 332, p. 319-336 (2001)]. As the substrate to be phosphorylated, a myelin basic protein (Catalog No. 133-13493, Wako Pure Chemical Industries, Ltd.) (20 μg/assay) was used. The reaction was carried out in a solution containing 3-[N-Morpholino]propanesulfonic acid (MOPS) (20 mmol/L, pH 7.2), β-glycerophosphoric acid (Sigma Corp.) (25 mmol/L), ethylenebis(oxyethylenenitrilo)tetraacetic acid (EGTA) (1 mmol/L), […] (Sigma-Aldrich Corp.) (1 mmol/L), dithiothreitol (DTT, Wako Pure Chemical Industries, Ltd.) (1 mmol/L), adenosine 5′-triphosphate (ATP, Sigma Corp.) (20 μmol/L), and MgCl2 (18.75 mmol/L) (total 40 μL/assay). The reaction was started by adding human p38α and [γ-^32P]ATP (1 μCi/assay), and incubation was performed at 30° C. for 15 minutes. The reaction was terminated by adding 4.5% v/v phosphoric acid (10 μL/well). Then, 45 μL of the reaction mixture was adsorbed onto phosphocellulose paper (p81 paper, Code No. 3698023, Whatman International, Maidstone, UK). The phosphocellulose paper was washed with 0.75% v/v phosphoric acid. Then, the radioactivity of the phosphorylated myelin basic protein ([^32P]) remaining on the phosphocellulose paper was measured with a scintillation counter (TRI-CARB2700TR, PerkinElmer, Boston, Mass., USA) using program No. 27 (data mode: cpm, measurement time: 1 min, Background substract: none, energy range measured: LL 0.0-UL 2000) or a scintillation counter (LS6500, BeckmanCoulter, Fullerton, Calif., USA) using program No. 17 (data mode: cpm, measurement time: 1 min, Background substract: none, energy range measured: high). The test compound was dissolved in DMSO before addition.

T1 sequence (Q16539 whole entry): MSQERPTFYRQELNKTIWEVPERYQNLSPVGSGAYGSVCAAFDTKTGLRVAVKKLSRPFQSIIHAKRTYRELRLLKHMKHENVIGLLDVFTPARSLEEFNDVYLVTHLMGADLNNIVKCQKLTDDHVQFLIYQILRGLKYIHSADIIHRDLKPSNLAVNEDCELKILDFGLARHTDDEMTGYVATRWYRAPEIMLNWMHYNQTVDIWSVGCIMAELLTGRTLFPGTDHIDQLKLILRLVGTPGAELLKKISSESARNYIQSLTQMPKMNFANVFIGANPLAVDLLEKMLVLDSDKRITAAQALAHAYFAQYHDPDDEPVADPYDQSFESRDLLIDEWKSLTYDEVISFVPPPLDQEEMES

Structure (SMILES) | inhibition at 1 µM [%]
COc1cc2nc(N[C@H]3CC[C@H](N)CC3)ncc2cc1-c1ccccc1Cl [Compound 5, 2-(trans-4-Aminocyclohexylamino)-6-(2-chlorophenyl)-7-methoxyquinazoline] | ≥ 50
COc1cc2nc(NC3CCCC3)ncc2cc1-c1ccccc1Cl [Compound 6, 6-(2-Chlorophenyl)-2-(cyclopentylamino)-7-methoxyquinazoline] | ≥ 50
COc1cc2nc(N[C@H](C)C(C)(C)O)ncc2cc1-c1ccccc1Cl [Compound 7, (R)-6-(2-Chlorophenyl)-2-(2-hydroxy-1,2-dimethylpropylamino)-7-methoxyquinazoline] | ≥ 50
COc1cc2nc(N[C@@H](C)c3ccccc3)ncc2cc1-c1ccccc1Cl [Compound 9, (S)-6-(2-Chlorophenyl)-7-methoxy-2-[(1-phenylethyl)amino]quinazoline] | ≥ 50
COc1cc2nc(N[C@H]3CC[C@H](O)CC3)ncc2cc1-c1ccccc1Cl [Compound 10, 6-(2-Chlorophenyl)-2-(trans-4-hydroxycyclohexylamino)-7-methoxyquinazoline] | ≥ 50
COc1cc2nc(NC3CCOCC3)ncc2cc1-c1ccccc1Cl [Compound 11, 6-(2-Chlorophenyl)-7-methoxy-2-(4-tetrahydropyranylamino)quinazoline] | ≥ 50
COc1cc2nc(NC3CCN(S(C)(=O)=O)CC3)ncc2cc1-c1ccccc1Cl [Compound 12, 6-(2-Chlorophenyl)-2-[1-(methylsulfonyl)piperidin-4-ylamino]-7-methoxyquinazoline] | ≥ 50
COc1cc2nc(NC3CCN(S(=O)(=O)CC(F)(F)F)CC3)ncc2cc1-c1ccccc1Cl [Compound 14, 6-(2-Chlorophenyl)-7-methoxy-2-[1-(2,2,2-trifluoroethylsulfonyl)piperidin-4-ylamino]quinazoline] | ≥ 50
COc1cc2nc(NC3CCN(C(N)=O)CC3)ncc2cc1-c1ccccc1Cl [Compound 15, 2-(1-Carbamoylpiperidin-4-ylamino)-6-(2-chlorophenyl)-7-methoxyquinazoline] | ≥ 50
COc1cc2nc(Nc3c(F)cccc3F)ncc2cc1-c1ccccc1Cl [Compound 16, 6-(2-Chlorophenyl)-2-(2,6-difluoroanilino)-7-methoxyquinazoline] | ≥ 50
CC(C)Nc1ncc2cc(-c3ccccc3Cl)c(O)cc2n1 [Compound 19, 6-(2-Chlorophenyl)-7-hydroxy-2-isopropylaminoquinazoline] | ≥ 50
CC(=O)OCCOc1cc2nc(NC(C)C)ncc2cc1-c1ccccc1Cl [Compound 22, 7-(2-Acetyloxyethyloxy)-6-(2-chlorophenyl)-2-isopropylaminoquinazoline] | ≥ 50
CC(C)Nc1ncc2cc(-c3ccccc3Cl)c(OCCCCO)cc2n1 [Compound 25, 6-(2-Chlorophenyl)-7-(4-hydroxybutyloxy)-2-isopropylaminoquinazoline] | ≥ 50
COCOc1cc2nc(NC(C)C)ncc2cc1-c1ccccc1Cl [Compound 26, 6-(2-Chlorophenyl)-2-isopropylamino-7-methoxymethyloxyquinazoline] | ≥ 50
CC(C)Nc1ncc2cc(-c3ccccc3Cl)c(OCc3cccc(C(=O)O)c3)cc2n1 [Compound 29, 7-(3-Carboxyphenylmethyloxy)-6-(2-chlorophenyl)-2-isopropylaminoquinazoline] | ≥ 50
CC(C)Nc1ncc2cc(-c3ccccc3Cl)c(OCCCC(=O)O)cc2n1 [Compound 31, 7-(3-Carboxypropyloxy)-6-(2-chlorophenyl)-2-isopropylaminoquinazoline] | ≥ 50
CC(C)Nc1ncc2cc(-c3ccccc3Cl)c(OCC(C)(C)O)cc2n1 [Compound 34, 6-(2-Chlorophenyl)-7-(2-hydroxy-2-methylpropyloxy)-2-isopropylaminoquinazoline] | ≥ 50
CC(C)Nc1ncc2cc(-c3ccccc3Cl)c(OCC(N)=O)cc2n1 [Compound 35, 7-(Carbamoylmethyloxy)-6-(2-chlorophenyl)-2-isopropylaminoquinazoline] | ≥ 50

More lines, now with the values ahead:

inhibition at 1 µM [%] | Structure (SMILES)
≥ 50 | COc1cc2nc(NC(C)C)ncc2cc1-c1ccc(F)cc1F [Compound 3, 6-(2,4-Difluorophenyl)-2-isopropylamino-7-methoxyquinazoline]
≥ 50 | COc1cc2nc(NC(C)C)ncc2cc1-c1ccccc1Cl [Compound 4, 6-(2-Chlorophenyl)-2-isopropylamino-7-methoxyquinazoline]
≥ 50 | COc1cc2nc(N[C@H](C)c3ccccc3)ncc2cc1-c1ccccc1Cl [Compound 8, (R)-6-(2-Chlorophenyl)-7-methoxy-2-[(1-phenylethyl)amino]quinazoline]
≥ 50 | COc1cc2nc(NC3CCN(S(=O)(=O)C(F)(F)F)CC3)ncc2cc1-c1ccccc1Cl [Compound 13, 6-(2-Chlorophenyl)-7-methoxy-2-[1-(trifluoromethylsulfonyl)piperidin-4-ylamino]quinazoline]
≥ 50 | COc1cc2nc(Nc3c(Cl)cccc3Cl)ncc2cc1-c1ccccc1Cl [Compound 17, 6-(2-Chlorophenyl)-2-(2,6-dichloroanilino)-7-methoxyquinazoline]
≥ 50 | CC(C)Nc1ncc2cc(-c3ccccc3Cl)c(OC(=O)c3ccccc3)cc2n1 [Compound 20, 7-Benzoyloxy-6-(2-chlorophenyl)-2-isopropylaminoquinazoline]
≥ 50 | CC(C)Nc1ncc2cc(-c3ccccc3Cl)c(OCC#N)cc2n1 [Compound 21, 6-(2-Chlorophenyl)-7-cyanomethyloxy-2-isopropylaminoquinazoline]
≥ 50 | CC(C)Nc1ncc2cc(-c3ccccc3Cl)c(OCCO)cc2n1 [Compound 23, 6-(2-Chlorophenyl)-7-(2-hydroxyethyloxy)-2-isopropylaminoquinazoline]
≥ 50 | CC(C)Nc1ncc2cc(-c3ccccc3Cl)c(OCCCO)cc2n1 [Compound 24, 6-(2-Chlorophenyl)-7-(3-hydroxypropyloxy)-2-isopropylaminoquinazoline]
≥ 50 | CC(C)Nc1ncc2cc(-c3ccccc3Cl)c(OCc3ccccc3)cc2n1 [Compound 27, 7-Benzyloxy-6-(2-chlorophenyl)-2-isopropylaminoquinazoline]
≥ 50 | CC(C)Nc1ncc2cc(-c3ccccc3Cl)c(OCc3ccc(C(=O)O)cc3)cc2n1 [Compound 28, 7-(4-Carboxyphenylmethyloxy)-6-(2-chlorophenyl)-2-isopropylaminoquinazoline]
≥ 50 | CC(C)Nc1ncc2cc(-c3ccccc3Cl)c(OCCC(=O)O)cc2n1 [Compound 30, 7-(2-Carboxyethyloxy)-6-(2-chlorophenyl)-2-isopropylaminoquinazoline]
≥ 50 | CCOC(=O)COc1cc2nc(NC(C)C)ncc2cc1-c1ccccc1Cl [Compound 32, 6-(2-Chlorophenyl)-7-(ethoxycarbonylmethyloxy)-2-isopropylaminoquinazoline]
≥ 50 | CC(C)Nc1ncc2cc(-c3ccccc3Cl)c(OCC(=O)O)cc2n1 [Compound 33, 7-(Carboxymethyloxy)-6-(2-chlorophenyl)-2-isopropylaminoquinazoline]
